Measurements taken from PubChem BioAssay (NCI).
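All cell lines were grown in 96-well plates and treated with compound for 48 hours. TGI: total growth inhibition.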

Tests used:
Experiment in all cases: DTP human tumour cell line panel, 48 h
SK-MEL-5 melanoma = test system: SK-MEL-5 melanoma
SNB-19 CNS = test system: SNB-19 CNS
SW-620 colon = test system: SW-620 colon
BT-549 breast = test system: BT-549 breast
ACHN renal = test system: ACHN renal
SN12C renal = test system: SN12C renal
SK-OV-3 ovarian = test system: SK-OV-3 ovarian
TK-10 renal = test system: TK-10 renal
CCRF-CEM leukemia = test system: CCRF-CEM leukemia
OVCAR-4 ovarian = test system: OVCAR-4 ovarian
PC-3 prostate = test system: PC-3 prostate
SK-MEL-28 melanoma = test system: SK-MEL-28 melanoma
OVCAR-3 ovarian = test system: OVCAR-3 ovarian
NCI-H226 lung = test system: NCI-H226 lung
MCF7 breast = test system: MCF7 breast
M14 melanoma = test system: M14 melanoma
K-562 leukemia = test system: K-562 leukemia
SF-539 CNS = test system: SF-539 CNS
786-0 renal = test system: 786-0 renal
HCT-15 colon = test system: HCT-15 colon
A498 renal = test system: A498 renal
KM12 colon = test system: KM12 colon
A549 NSCLC = test system: A549 NSCLC
UACC-257 melanoma = test system: UACC-257 melanoma
MDA-N = test system: MDA-N
NCI-H460 lung = test system: NCI-H460 lung
T-47D breast = test system: T-47D breast
NCI/ADR-RES ovarian = test system: NCI/ADR-RES ovarian
MDA-MB-231 breast = test system: MDA-MB-231 breast
DU-145 prostate = test system: DU-145 prostate
SK-MEL-2 melanoma = test system: SK-MEL-2 melanoma
OVCAR-5 ovarian = test system: OVCAR-5 ovarian
NCI-H23 lung = test system: NCI-H23 lung
OVCAR-8 ovarian = test system: OVCAR-8 ovarian
LOX IMVI melanoma = test system: LOX IMVI melanoma
UACC-62 melanoma = test system: UACC-62 melanoma
SR leukemia = test system: SR leukemia
HL-60(TB) leukemia = test system: HL-60(TB) leukemia
SF-295 CNS = test system: SF-295 CNS
HOP-92 NSCLC = test system: HOP-92 NSCLC
MOLT-4 leukemia = test system: MOLT-4 leukemia
HOP-62 NSCLC = test system: HOP-62 NSCLC
IGROV1 ovarian = test system: IGROV1 ovarian
COLO 205 colon = test system: COLO 205 colon
HCT-116 colon = test system: HCT-116 colon
UO-31 renal = test system: UO-31 renal
EKVX NSCLC = test system: EKVX NSCLC
SNB-75 CNS = test system: SNB-75 CNS
RPMI-8226 leukemia = test system: RPMI-8226 leukemia
MDA-MB-435 = test system: MDA-MB-435
U251 CNS = test system: U251 CNS
CAKI-1 renal = test system: CAKI-1 renal
HT29 colon = test system: HT29 colon
RXF 393 renal = test system: RXF 393 renal
NCI-H522 lung = test system: NCI-H522 lung
SF-268 CNS = test system: SF-268 CNS
HCC-2998 colon = test system: HCC-2998 colon
MALME-3M melanoma = test system: MALME-3M melanoma

Measured: TGI

O=C(O)C(CCc1ccccc1)N1C(=O)c2ccccc2C1=O (stereo not drawn)
> 100 µM: SK-MEL-5 melanoma | SNB-19 CNS | SW-620 colon | BT-549 breast | ACHN renal | SN12C renal | SK-OV-3 ovarian | TK-10 renal | CCRF-CEM leukemia | OVCAR-4 ovarian | PC-3 prostate | SK-MEL-28 melanoma | OVCAR-3 ovarian | NCI-H226 lung | MCF7 breast | M14 melanoma | K-562 leukemia | SF-539 CNS | 786-0 renal | HCT-15 colon | A498 renal | KM12 colon | A549 NSCLC | UACC-257 melanoma | MDA-N | NCI-H460 lung | T-47D breast | NCI/ADR-RES ovarian | MDA-MB-231 breast | DU-145 prostate | SK-MEL-2 melanoma | OVCAR-5 ovarian | NCI-H23 lung | OVCAR-8 ovarian | LOX IMVI melanoma | UACC-62 melanoma | SR leukemia | HL-60(TB) leukemia | SF-295 CNS | HOP-92 NSCLC | MOLT-4 leukemia | HOP-62 NSCLC | IGROV1 ovarian | COLO 205 colon | HCT-116 colon | UO-31 renal | EKVX NSCLC | SNB-75 CNS | RPMI-8226 leukemia | MDA-MB-435 | U251 CNS | CAKI-1 renal | HT29 colon | RXF 393 renal

CCN(CC)c1ccc2cc(-c3nc4ccccc4n3C)c(=O)oc2c1
11 µM: HT29 colon
0.861 µM: BT-549 breast
1.46 µM: NCI-H226 lung
29.8 µM: HOP-62 NSCLC
> 54.3 µM: MDA-MB-231 breast
> 31.6 µM: RPMI-8226 leukemia
> 48.7 µM: 786-0 renal
63.1 µM: RXF 393 renal
4.79 µM: IGROV1 ovarian
0.727 µM: NCI/ADR-RES ovarian
0.545 µM: SF-539 CNS
> 100 µM: SNB-19 CNS | SW-620 colon | ACHN renal | SN12C renal | TK-10 renal | CCRF-CEM leukemia | OVCAR-4 ovarian | MCF7 breast | M14 melanoma | K-562 leukemia | HCT-15 colon | KM12 colon | SF-268 CNS | A549 NSCLC | UACC-257 melanoma | T-47D breast | OVCAR-5 ovarian | OVCAR-8 ovarian | LOX IMVI melanoma | SR leukemia | HL-60(TB) leukemia | SF-295 CNS | HOP-92 NSCLC | MOLT-4 leukemia | HCT-116 colon | UO-31 renal | CAKI-1 renal
0.187 µM: A498 renal
> 24.2 µM: DU-145 prostate
0.68 µM: SK-MEL-2 melanoma
0.135 µM: MDA-N
0.661 µM: NCI-H522 lung
29.3 µM: NCI-H23 lung
0.334 µM: MDA-MB-435
4.36 µM: NCI-H460 lung
> 41.9 µM: U251 CNS
43.6 µM: SK-OV-3 ovarian
3.42 µM: SK-MEL-5 melanoma

CC(=O)OCc1cc(=O)n2c([nH]c3ccccc32)c1C#N
> 100 µM: SK-MEL-5 melanoma | SNB-19 CNS | SW-620 colon | BT-549 breast | ACHN renal | SN12C renal | SK-OV-3 ovarian | TK-10 renal | CCRF-CEM leukemia | PC-3 prostate | SK-MEL-28 melanoma | OVCAR-3 ovarian | NCI-H226 lung | MCF7 breast | M14 melanoma | HCC-2998 colon | K-562 leukemia | SF-539 CNS | 786-0 renal | HCT-15 colon | A498 renal | A549 NSCLC | UACC-257 melanoma | MDA-N | T-47D breast | NCI/ADR-RES ovarian | MDA-MB-231 breast | DU-145 prostate | SK-MEL-2 melanoma | OVCAR-5 ovarian | NCI-H23 lung | OVCAR-8 ovarian | LOX IMVI melanoma | UACC-62 melanoma | HL-60(TB) leukemia | SF-295 CNS | HOP-92 NSCLC | MOLT-4 leukemia | MALME-3M melanoma | IGROV1 ovarian | COLO 205 colon | HCT-116 colon | UO-31 renal | EKVX NSCLC | U251 CNS | CAKI-1 renal | HT29 colon | RXF 393 renal
60.9 µM: OVCAR-4 ovarian
64.8 µM: NCI-H460 lung
